Experimental data as given in EP0715517B1, “ESTRENE STEROIDS AS NEU[…] CHANGE IN HUMAN HY[…] AND RELATED PHARMACEUTICAL COMPOSITIONS” (priority 1993, dated 1994).
Entries after “also recorded” stand apart in the source; their conditions may differ.

Tests used:
VNO [1] = experiment: Electro-vomeronasogram (EVG) (Example 25); format: in vivo, human; settings: for EVG response to olfactants delivered to the VNO: male and female subjects, 400 fmoles, Fig. 7B; for EVG response in female subjects (in words): 30 female subjects (ages 20 - 45), Fig. 6B; for EVG response in female subjects (in words) / EVG response in the male VNO (in words) / EVG average response (mean): 100 fmoles; for EVG response in the male VNO (in words): male subjects, Fig. 6A and Fig. 7; for EVG average response (mean): male subjects (ages 20 to 38), 1 second pulses, p<0.01, Fig. 6A
Protocol: The following electrophysiological studies were performed in 60 clinically normal human volunteers of both sexes (30 male and 30 female) whose ages ranged from 20 to 45 years. No anesthetics were used, and female subjects were excluded if pregnant.
(§1) The stimulation and recording system consists of a "multifunctional miniprobe" described elsewhere (Monti-Bloch, L. and Grosser, B.l. (1991) "Effect of putative pheromones on the electrical activity of the human vomeronasal organ and olfactory epithelium," J. Steroid Biochem. Molec. Biol. 39:573-582.). The recording electrode is a 0.3 mm silver ball attached to a small (0.1 mm) silver wire insulated with Teflon© the surface of the electrode is first treated to produce a silver chloride interface, and is then covered with gelatin It is positioned within a small caliber Teflon© catheter (dia = […]) such that the tip of the electrode protrudes approximately 2 mm. The Teflon© catheter is 10 cm in length and constitutes the terminal extension for a multichannel delivery system which delivers a continuous air stream carrying discreet pulses of chemosensory stimuli. The air stream first passes into a small chamber and is bubbled through a solution containing either a vomeropherin or an olfactant in a diluent or the diluent alone. A solenoid is used to rapidly redirect the air stream from the chamber to a route which bypasses the chamber. This creates a discreet pulse of stimulant in the air stream. A second, outer Teflon® tube with a diameter of 2 mm surrounds the catheter-electrode assemblage, and its central end is connected to an aspirator that provides continuous suction of 3ml/s. This concentric arrangement of the outer suction tube allows the emitted chemosensory stimuli to be localized to an area we call a "minifield" (approx. dia = 1 mm), and it avoids diffusion of substances either to the area outside the intended stimulation site or into the respiratory system. The entire stimulating and recording assemblage may be positioned either on the neurosensory epithelium within the VNO, or on the surface of the olfactory or respiratory epithelium. Electro-vomeronasogram (EVG): Recordings are carried out in a quiet room with the subject supine; the multifunctional miniprobe is initially stabilized within the nasal cavity using a nasal retractor placed in the vestibule. Reference and ground electrodes consist of silver discs (8 mm), both of which are positioned on the glabella.
The entrance to the VNO, or vomeronasal pit, is identified by first dilating the nasal aperture and vestibule. A 6x magnifying binocular loupe with halogen illumination is then used to introduce the tip of the Teflon® catheter and recording electrode assemblage into the VNO opening where it is stabilized at an approximate depth of 1 mm within the vomeronasal passage. Optimal placement of the recording electrode is signaled after testing for an adequate depolarization in response to a test substance.
Electrical signals from the recording electrode are fed to a DC amplifier after which they are digitized, computer monitored, and stored. The peak-to-peak amplitude of the signals is measured, and the area under the depolarization wave is integrated, while continuously monitoring the signal both on the computer screen and on a digital oscilloscope. Artifacts produced by respiratory movements are deleted by training the subjects to practice mouth breathing with velopharyngeal closure. Chemosensory Stimulants: Olfactory test substances are cineole, and 1-carvone; vomeropherins are A, B, C, E and F. (Vomeropherins were supplied by Pherin Corporation, Menlo Park, California), Samples of vomeropherins In concentration of 25-800 fmoles are delivered in the continuous air stream for durations from 300 milliseconds to 1 second. Usually, intervals of 3 to 5 minutes separated each series of short test pulses. […]

[2] = system: olfactory epithelium (OE); experiment: Electro-olfactgram (EOG) (Example 25); format: in vivo, human; settings: 20 subjects (10 males, 10 females); 200 fmoles vomeropherins, 400 fmoles olfactants; one second pulses; Fig. 7A
Source text: as §1
Electrical signals from the recording electrode are fed to a DC amplifier after which they are digitized, computer monitored, and stored. The peak-to-peak amplitude of the signals is measured, and the area under the depolarization wave is integrated, while continuously monitoring the signal both on the computer screen and on a digital oscilloscope. […]
Effects of Vomeropherins on the EOG: The summated receptor potential from the olfactory epithelium (OE) was recorded in 20 subjects: 10 males and 10 females. […]

VNO [3] = experiment: Electrodermal activity (EDA) after VNO stimulation (Example 25); format: in vivo, human; settings: p<0.01, n = 30; for decrease in EDA: female subjects; for skin resistance (electrodermal activity, EDA): male subjects, Fig. 6C
Protocol: (§2) Cortical evoked activity was induced by VNO stimulation with vomeropherins, and olfactory stimulation with odorants delivered in 300 ms air pulses. It was recorded using standard electroencephalographic (EEG) electrodes placed at positions Cz-A1 and Tz-A1 of the international […] system; the ground electrode was placed on the mastoid process. Electrodermal activity (EDA) was recorded using standard 8 mm silver electrodes in contact with palmar skin of the medial and ring fingers respectively, through a conductive gel interface. Skin temperature (ST) was recorded by a small (1.0 mm) thermistor probe placed in the right ear lobe. Peripheral arterial pulse (PAP) was monitored with a plethysmograph attached to the tip of the index finger. Respiratory frequency (RF) was measured with an adjustable strain gauge placed around the lower thorax. All electrical signals were DC amplified, digitized (MP-100, Biopac Systems) and continuously monitored utilizing a computer. Statistical Analysis: EVGs or EOGS, peak-to-peak changes and frequency changes of other parameters were measured and statistically analyzed. The significance of the results was determined by either using paired t-tests or analysis of variance (ANOVA). […] Recordings of the EVG were performed on 30 men and 30 women (ages 20 to 45). Vomeropherins were diluted and applied as 1 second pulses to the VNO with […] intervals between pulses when questioned, the subjects were not able to "smell" or otherwise consciously detect any of the vomeropherins.

VNO [4] = experiment: Skin temperature (ST) after VNO stimulation (Example 25); format: in vivo, human
Protocol: as §2

VNO [5] = experiment: Cortical evoked activity (EEG, alpha cortical activity) after VNO stimulation (Example 25); format: in vivo, human
Protocol: as §2
[…] […] Synchronization of the EEG was sustained for 1.5 to 2.7 minutes after application of a single pulse of active substance.

VNO [6] = experiment: Autonomic responses to Estrene stimulation of the VNO (Example 22); format: in vivo, human; settings: 40 male subjects, 1 second pulse
Protocol: Various autonomic parameters were monitored while 1,3,5(10), 16-Estratetraen-3-yl-acetate was administered to 40 male subjects using the procedure described in Example 20. Propylene glycol was also administered as a control. The ligand was administered as a 1 second pulse. The change in autonomic function was first noted within 2 seconds and lasted for up to 45 seconds.

[7] = system: human vomeronasal organ (VNO); experiment: Local electrical potentials recorded from the VNO after localized gaseous stimulation (Example 20); format: in vivo; settings: for VNO response, males compared with females (sexually dimorphic): Fig. 2B; for VNO response: males, about 25 pg of steroid-ligand puffed 1 to 2 seconds, response measured in mV x s, Fig. 2A
Protocol: A non-invasive method has been employed to record local electrical potentials from the human vomeronasal organ (VNO) and from the olfactory epithelium (OE). Localized gaseous stimulation was applied to both nasal structures at different instances using specially designed catheter/electrodes connected to a multichannel drug delivery system.
The study was performed on ten clinically normal (screened) volunteers - 2 males and 8 females, ranging in age from 18 to 85 years. The studies were conducted without general or local anesthetics.
The catheter/electrodes were designed to deliver a localized stimulus and simultaneously record the response. In the case of VNO recording, the right nasal fosa of the subject was explored using a nasoscope (nasal specula) and the vomeronasal opening was localized close to the intersection of the anterior edge of the vomer and the nasal floor. The catheter/electrode was gently driven through the VNO-opening and the electrode tip placed in the organ's lumen at 1 to 3 mm from the opening. The nasoscope was then removed. In the case of the OE, recording the procedure was similar except the positioning of the catheter/electrode was gently placed deep in the lateral part of the medial nasal duct, reaching the olfactory mucosa.
Localized gaseous stimulation was done through the catheter/electrode. A constant stream of clean, nonodorous, humidified air at room temperature was continuously passed through a channel of the stimulating system. The stimulating ligand substances were diluted in propylene glycol, mixed with the humidified air, and puffed for from 1 to 2 seconds through the catheter/electrode. It is estimated that this administration provides about 25 pg of steroid-ligand to the nasal cavity.

[8] = 30 female subjects, p<0.01, compared to A and C, Fig. 6H
[9] = females, single pulse (200 fmoles), Fig. 6F
[10] = 30 male subjects, p<0.01, Fig. 6G
[11] = males, 200 fmoles, air pulses 300 ms to 1 sec, Fig. 6E

Question: How did the “EVG response to olfactants delivered to the VNO” value (VNO [1]) turn out when `CC12CCC(CC1)C(C)(C)O2` [cineole, reference compound] was run?
Answer: only a minor local response in the VNO; also recorded: do not induce a significant EVG response

Question: And the “EOG local response of the OE (in words)” value [2]?
Answer: strong response in both men and women; also recorded: significant (p<0.01) local response

Question: For `C[C@@]12C=CC[C@H]1[C@@H]1CCC3=C[C@H](O)CC[C@]3(C)[C@H]1CC2` [E, Androsta-4,16-dien-3α-ol], which “EVG response in female subjects (in words)” value (VNO [1]) is on record?
Answer: does not stimulate the VNO in female subjects

Question: And the “EOG local response of the OE (in words)” value [2]?
Answer: stronger olfactory effect than does F; also recorded: significant (p<0.01) local response

Question: With `C[C@@]12C=CC[C@H]1[C@@H]1CCC3=C[C@@H](O)CC[C@]3(C)[C@H]1CC2` [F, Androsta-4,16-dien-3β-ol] as the compound, how does the “decrease in EDA” value (VNO [3]) read?
Answer: greater decrease in EDA than A or C

Question: What about the “EVG response in female subjects (in words)” value (VNO [1]) of the same compound?
Answer: produced the most significant differences within the group

Question: And the “EVG response in the male VNO (in words)” value (VNO [1])?
Answer: significantly reduced responses in the male VNO

Question: What about the “skin temperature (ST)” value (VNO [4]; [8]) of the same compound?
Answer: significant increase in skin temperature

Question: And the alpha cortical activity (VNO [5]; [9])?
Answer: increased alpha cortical

Question: How did the “EVG response to olfactants delivered to the VNO” value (VNO [1]) turn out when `C=C(C)[C@@H]1CC=C(C)C(=O)C1` [1-carvone, reference compound] was run?
Answer: only a minor local response in the VNO; also recorded: do not induce a significant EVG response

Question: What about the “EOG local response of the OE (in words)” value [2] of the same compound?
Answer: strong response in both men and women; also recorded: significant (p<0.01) local response

Question: Which “change in autonomic function first noted (onset)” value (VNO [6]) does the source give for `CC(=O)Oc1ccc2c(c1)CC[C@@H]1[C@@H]2CC[C@]2(C)C=CC[C@@H]12` [A, 1,3, 5(10),16-Estratetraen-3-yl acetate] here?
Answer: ≤ 2 s

Question: And the “change in autonomic function lasted (duration)” value (VNO [6])?
Answer: up to 45 seconds

Question: And the “integrated receptor potential in the VNO” value (VNO [6]; compared to propylene glycol control, Fig. 4A)?
Answer: significant change

Question: What about the galvanic skin response (VNO [6]; compared to propylene glycol control, Fig. 4B) of the same compound?
Answer: significant change

Question: And the “skin resistance (electrodermal activity, EDA)” value (VNO [3])?
Answer: decreased skin resistance

Question: And the “EVG response in female subjects (in words)” value (VNO [1])?
Answer: small effect that was significantly different from F

Question: And the “EVG average response (mean)” value (VNO [1])?
Answer: 11.4 mV

Question: And the “skin temperature (ST)” value (VNO [4]; [10])?
Answer: significant increase in skin temperature

Question: And the alpha cortical activity (VNO [5]; [11])?
Answer: significantly increased alpha cortical activity; also recorded: strongest effect

Question: What about the “latency of increase in alpha cortical activity” value (VNO [5]; males, 200 fmoles, Fig. 6E) of the same compound?
Answer: 270 to 380 ms

Question: Which results are given for `C[C@@]12C=CC[C@H]1[C@@H]1CCC3=CC(=O)CC[C@]3(C)[C@H]1CC2` [B, Androsta-4,16-dien-3-one]?
Answer: decrease in EDA (VNO [3]): greater decrease in EDA than A or C; EVG response in the male VNO (in words) (VNO [1]): significantly reduced responses in the male VNO; skin temperature (ST) (VNO [4]; [8]): significant increase in skin temperature; alpha cortical activity (VNO [5]; [9]): increased alpha cortical; EOG local response of the OE (in words) [2]: the only vomeropherin having significant effect in the OE; also recorded: significant (p<0.01) local response

Question: How did the “VNO response, males compared with females (sexually dimorphic)” value [7] turn out when `C[C@@]12C=CC[C@H]1[C@@H]1CCc3cc(O)ccc3[C@H]1CC2` [C, 1,3,5(10),16-Estratetraen-3-ol] was run?
Answer: approximately four times as strong in males as it is in females

Question: And the VNO response [7]?
Answer: significantly stronger VNO response in males than do the other compounds tested

Question: And the “skin resistance (electrodermal activity, EDA)” value (VNO [3])?
Answer: decreased skin resistance

Question: And the “EVG average response (mean)” value (VNO [1])?
Answer: 6.4 mV

Question: And the “skin temperature (ST)” value (VNO [4]; [10])?
Answer: significant increase in skin temperature

Question: What about the alpha cortical activity (VNO [5]; [11]) of the same compound?
Answer: significantly increased alpha cortical activity

Question: What about the “latency of increase in alpha cortical activity” value (VNO [5]; males, 200 fmoles, Fig. 6E) of the same compound?
Answer: 270 to 380 ms

Question: What does the source list for `C[C@]12CC[C@@H]3c4ccc(O)cc4CC[C@H]3[C@@H]1C[C@@H](O)[C@@H]2O` [1,3,5(10)-Estratrien-3, 16α,17δ-triol]?
Answer: VNO response, males compared with females (sexually dimorphic) [7]: approximately four times as strong in males as it is in females; VNO response [7]: strong VNO response
